Laboratory results as given in BindingDB's records for doi:10.1016/j.bmc.2018.06.029 (East China University of Science & Technology, 2018).

Target: Tyrosine-protein kinase SYK (Homo sapiens) (UniProt P43405)
Test: Inhibition of SYK (unknown origin) using FAM-labeled peptide as substrate preincubated for 10 mins followed by substrate addition measured after 25 mins

Row | Compound | IC50
1 | COc1cc(Nc2nc(N3CCC(NC(=O)c4ccc(C(=O)O)cn4)C3)nc3c2COC3)cc(OC)c1OC (stereo unspecified) | 14.2 µM
2 | COCCCNc1nc(N2CCC(NC(=O)c3ccc(C(=O)O)cn3)C2)nc2c1COC2 (stereo unspecified) | > 50 µM
3 | CCc1ccc(Nc2nc(N3CCC(NC(=O)c4ccc(C(=O)O)cn4)C3)nc3c2COC3)cc1 (stereo unspecified) | 19.2 µM
4 | COc1ccc(Nc2nc(N3CCC(NC(=O)c4ccc(C(=O)O)cn4)C3)nc3c2COC3)cc1 (stereo unspecified) | 32.1 µM
5 | CCOCCCNc1nc(N2CCC(NC(=O)c3ccc(C(=O)O)cn3)C2)nc2c1COC2 (stereo unspecified) | > 50 µM
6 | COc1ccc(Nc2nc(N3CCC(NC(=O)c4ccc(C(=O)O)cn4)C3)nc3c2COC3)cc1OC (stereo unspecified) | 23.7 µM
7 | Cc1ccc(Nc2nc(N3CCC(NC(=O)c4ccc(C(=O)O)cn4)C3)nc3c2COC3)cc1 (stereo unspecified) | 20.9 µM
8 | O=C(O)c1ccc(C(=O)NC2CCN(c3nc4c(c(NC5CCCCC5)n3)COC4)C2)nc1 (stereo unspecified) | 13.5 µM
9 | COC(=O)c1ccc(C(=O)NC2CCN(c3nc4c(c(Nc5ccc(OC)c(OC)c5)n3)CCC4)C2)cc1 (stereo unspecified) | > 50 µM
10 | CCCCCNc1nc(N2CCC(NC(=O)c3ccc(C(=O)O)cn3)C2)nc2c1COC2 (stereo unspecified) | > 50 µM
11 | O=C(O)c1ccc(C(=O)NC2CCN(c3nc4c(c(Nc5ccc6c(c5)OCCO6)n3)COC4)C2)nc1 (stereo unspecified) | 20.3 µM
12 | Cc1ccc(Nc2nc(N3CCC(NC(=O)c4ccc(C(=O)O)cn4)C3)nc3c2COC3)cc1C (stereo unspecified) | 15.6 µM
13 | CCCCCCNc1nc(N2CCC(NC(=O)c3ccc(C(=O)O)cn3)C2)nc2c1COC2 (stereo unspecified) | 9.7 µM
14 | COc1ccc(Nc2nc(N3CCC(NC(=O)c4ccc(C(=O)O)cc4)C3)nc3c2CCC3)cc1OC (stereo unspecified) | 25.3 µM
15 | COc1cc(Nc2nc(N3CCC(NC(=O)c4ccc(C(=O)O)cn4)C3)nc3c2COC3)cc(OC)c1 (stereo unspecified) | 20.9 µM
16 | CCCCCCCNc1nc(N2CCC(NC(=O)c3ccc(C(=O)O)cn3)C2)nc2c1COC2 (stereo unspecified) | 11.4 µM
